Measured values reported in patent US8377963B2, “Insulin-regulated aminopeptidase (IRAP) inhibitors and uses thereof” (Howard Florey Institute, priority 2007, dated 2013).

What was measured:
[1] = molecular target: T1, Aminopeptidase N (Sus scrofa, UniProt P15145); assay: Aminopeptidase N assay; assay type: biochemical; details: 10 μM; read-out: % inhibition of the catalytic activity of the enzyme
T1 construct: purchased Sigma Aldrich
T1 sequence (P15145 1-963): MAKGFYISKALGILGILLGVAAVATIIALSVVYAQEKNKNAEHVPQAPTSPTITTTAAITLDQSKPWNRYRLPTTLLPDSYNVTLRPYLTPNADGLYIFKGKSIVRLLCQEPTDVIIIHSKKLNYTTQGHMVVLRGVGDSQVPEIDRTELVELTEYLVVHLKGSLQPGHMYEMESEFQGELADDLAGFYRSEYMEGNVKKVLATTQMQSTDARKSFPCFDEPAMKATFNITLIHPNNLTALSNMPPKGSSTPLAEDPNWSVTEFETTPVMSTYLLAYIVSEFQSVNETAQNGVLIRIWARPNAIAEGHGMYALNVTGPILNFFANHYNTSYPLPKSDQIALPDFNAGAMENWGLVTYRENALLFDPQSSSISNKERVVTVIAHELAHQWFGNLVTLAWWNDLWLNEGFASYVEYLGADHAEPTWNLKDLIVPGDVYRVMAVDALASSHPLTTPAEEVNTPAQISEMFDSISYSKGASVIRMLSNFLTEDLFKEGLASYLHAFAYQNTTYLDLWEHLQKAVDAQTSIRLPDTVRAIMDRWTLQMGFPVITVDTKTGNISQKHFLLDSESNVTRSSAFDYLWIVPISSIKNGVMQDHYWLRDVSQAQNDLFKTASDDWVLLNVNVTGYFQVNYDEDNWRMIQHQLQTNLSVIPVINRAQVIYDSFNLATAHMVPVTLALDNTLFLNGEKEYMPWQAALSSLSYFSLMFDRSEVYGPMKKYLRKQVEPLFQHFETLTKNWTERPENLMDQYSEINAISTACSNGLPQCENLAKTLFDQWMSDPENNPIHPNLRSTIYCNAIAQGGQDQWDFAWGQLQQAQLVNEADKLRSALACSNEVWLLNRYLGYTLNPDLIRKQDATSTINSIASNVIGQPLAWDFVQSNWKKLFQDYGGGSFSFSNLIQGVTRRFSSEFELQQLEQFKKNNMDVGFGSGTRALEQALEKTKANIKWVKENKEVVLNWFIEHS
Method: Aminopeptidase N assay. 5 mU of aminopeptidase M (Sigma Aldrich) was incubated with 100 μM of substrate alanine-β-naphthylamide (Sigma Aldrich) in Tris buffered saline (50 mM Tris-HCl, 150 mM NaCl pH 7.5) at 25° C. IRAP inhibitors (1-10 μM) were added after 1 minute and fluorescence at 405 nm was followed.
(§1) Limited inhibition of control enzymes was observed.

[2] = molecular target: Angiotensin converting enzyme 1 (Homo sapiens, UniProt P12821); assay: Angiotensin converting enzyme assay; assay type: biochemical; details: read-out: % inhibition of the catalytic activity of the enzyme
Chain of Angiotensin converting enzyme 1 (P12821 30-1306): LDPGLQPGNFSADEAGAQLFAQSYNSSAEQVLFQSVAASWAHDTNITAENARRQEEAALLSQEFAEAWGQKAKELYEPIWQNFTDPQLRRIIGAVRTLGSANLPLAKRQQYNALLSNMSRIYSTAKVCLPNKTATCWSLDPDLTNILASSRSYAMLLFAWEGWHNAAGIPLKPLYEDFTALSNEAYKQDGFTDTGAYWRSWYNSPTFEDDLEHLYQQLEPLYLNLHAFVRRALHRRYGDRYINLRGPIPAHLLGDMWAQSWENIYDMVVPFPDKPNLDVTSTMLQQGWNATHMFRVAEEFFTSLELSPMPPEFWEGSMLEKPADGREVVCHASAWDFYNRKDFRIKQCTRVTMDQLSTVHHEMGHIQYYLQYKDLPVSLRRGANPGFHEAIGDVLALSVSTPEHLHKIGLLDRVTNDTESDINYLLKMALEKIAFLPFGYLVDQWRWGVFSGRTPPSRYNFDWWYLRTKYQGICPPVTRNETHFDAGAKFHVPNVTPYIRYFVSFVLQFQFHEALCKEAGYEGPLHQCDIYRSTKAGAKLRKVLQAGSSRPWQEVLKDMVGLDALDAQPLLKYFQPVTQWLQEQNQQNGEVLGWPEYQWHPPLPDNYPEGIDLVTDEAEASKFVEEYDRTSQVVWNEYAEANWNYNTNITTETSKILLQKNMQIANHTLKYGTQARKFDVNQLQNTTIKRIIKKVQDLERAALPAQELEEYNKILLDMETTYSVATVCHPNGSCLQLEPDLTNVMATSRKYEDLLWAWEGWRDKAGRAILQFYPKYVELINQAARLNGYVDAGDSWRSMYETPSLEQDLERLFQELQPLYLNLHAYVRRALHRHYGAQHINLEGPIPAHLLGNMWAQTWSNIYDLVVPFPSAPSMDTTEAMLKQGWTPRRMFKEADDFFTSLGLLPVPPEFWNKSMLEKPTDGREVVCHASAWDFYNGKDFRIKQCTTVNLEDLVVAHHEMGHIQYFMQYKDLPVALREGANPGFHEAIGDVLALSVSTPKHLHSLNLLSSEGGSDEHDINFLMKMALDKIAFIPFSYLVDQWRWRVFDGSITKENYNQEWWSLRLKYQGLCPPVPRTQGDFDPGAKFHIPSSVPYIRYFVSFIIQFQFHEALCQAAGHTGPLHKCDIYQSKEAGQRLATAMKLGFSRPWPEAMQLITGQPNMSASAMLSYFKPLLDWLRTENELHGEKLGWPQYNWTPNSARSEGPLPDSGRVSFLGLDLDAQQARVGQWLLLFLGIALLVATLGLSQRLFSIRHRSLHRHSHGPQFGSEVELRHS
Method: Angiotensin converting enzyme assay. The enzyme (final concentration 0.02 pmol/100 L) was incubated with 200 μL of assay solution that included 5 mmol/L HHL in 100 mmol/L potassium buffer (pH 8.3) that contained 300 mmol/L NaCl and 10^−4 mol/L ZnSO4 for 3 hours at 37° C. The enzymatic reaction was stopped by the addition of 1.5 mL of 0.28N NaOH, 100 μL of o-phthaldialdehyde (20 mg/mL) in methanol was added and the fluorescent reaction stopped by the addition of 200 μL of 3N HCl. The product, L-His-Leu, was measured fluorometrically (360 nm excitation and 500 nm emission).
as §1

[3] = test system: rats; assay: Spontaneous alternation plus maze; assay type: in vivo, rat; details: for Spontaneous Alternation Score (%): rats, n=8/group
Method: All experiments were performed according to the National Health and Medical Research Council of Australia “Code of practise for the care and use of animals for scientific purposes”. Male Spraque Dawley rats, (250-270 g) are housed individually and given water and standard rat chow ad libitum. On the day of surgery, the rats were anaesthetized with 5% isofluorane, placed in a stereotaxic frame and maintained on 2% isofluorane for the duration of the cannula implantation procedure. The rats were stereotaxically implanted with chronic indwelling cannula (Plastics One) into the cerebral lateral ventricles using the following flat skull coordinates 0.8 mm posterior to Bregma, 1.55 mm lateral to midline and 3.5 mm ventral to the dura. The cannula was then secured to the skull with stainless steel screws and dental cement. Seven days following surgery, proper cannula placement was verified by a bolus injection of angiotensin II (1 nmol/μl).
The plus maze was composed of four arms with each arm measuring 75×10×20 cm. The floor and walls of the central platform and the floors of the arms were made of black plastic. Spontaneous alternation testing was conducted by placing the rat on the center platform of the maze and allowing 20 min of unimpeded exploration. The number and sequence of arm entries were recorded for calculation of a percent alternation score. An alternation consisted of 4 different arm choices of 5 consecutive arm entries. A ⅘ alternation score was computed by dividing the number of observed alternations in overlapping quintuplets by the number of possible alternations and multiplying the quotient by 100.

[4] = test system: hippocampal slices; assay: Hippocampal glucose uptake assay; assay type: cell-based; details: rat hippocampal slices
Method: Hippocampal glucose uptake assay. Eight week old male Spraque-Dawley rats were deeply anaesthetised with Isofluorothane and killed by decapitation. The brains were rapidly removed and placed into ice-cold, 95% O2, 5% CO2-bubbled artificial cerebrospinal fluid (aCSF: 124 mM NaCl, 2.5 mM KCl, 2 mM CaCl2, 2 mM MgSO4, 26 mM NaHCO3, 1.25 mM NaH2 PO4 pH 7.4) supplemented with 10 mM D-glucose (Sigma). Under aCSF, the hippocampal hemispheres were rapidly dissected out and 200 μm slices prepared on McIllwain tissue chopper with an ice-cold blade and stage. Slices from each hemisphere were kept together and transferred to freshly 95% O2, 5% CO2-bubbled aCSF supplemented with 10 mM D-glucose at 37° C. for 1 hour. All subsequent steps were carried out at 37° C. in a gently shaking chamber with continuous infusion of 95% O2, 5% CO2. Slices from one hemisphere were used as a basal control while slices from the other hemisphere were stimulated, providing an internal control for each animal. […] Tritium content was measured in a Liquid Scintillation Analyser 1900TR (Perkin Elmer, MA, USA).

[5] = test system: Glucose-6-phosphate dehydrogenase/glucose hexokinase; assay: Glucose-6-phosphate dehydrogenase and hexokinase activity, fluorimetric assay; details: 100 μM
Method: Glucose-6-phosphate dehydrogenase and hexokinase activity. Glucose-6-phosphate dehydrogenase and hexokinase activity in the absence and presence of the compounds was determined in a fluorimetric assay. Ten mM Tris MgCl2 buffer (total volume of 200 ml) containing glucose-6-phosphate dehydrogenase, 0.3M ATP, 30 mM NADP+ was added to 96 well microtitre plate together with 20 μl of compound, a reading at excitation 350 nm and emission 510 nm was taken followed by the addition of hexokinase and another reading.

inhibition at 10 µM [1]: 13%
inhibition at 10 µM ([2]; 10 μM): 9%
inhibition at 100 µM ([2]; 100 μM): 3%
% inhibition of the catalytic activity of the enzyme [5]: 0%
SMILES: CCOC(=O)C1=C(NC(C)=O)Oc2cc(O)ccc2C1c1cccnc1 (stereo not drawn) [Compound 2, Ethyl 2-(acetylamino)-7-hydroxy-4-pyridin-3-yl-4H-chromene-3-carboxylate]
Spontaneous Alternation Score (%) ([3]; 0.1 nmol intracerebroventricularly): 73.70 ± 3.14 %
spontaneous alternation scores compared to vehicle treated control rats ([3]; 0.1 nmole, p<0.01): significantly enhanced spontaneous alternation scores
Spontaneous Alternation Score (%) ([3]; 1 nmol intracerebroventricularly): 64.34 ± 2.49%
Fold change in 3H-2DOG uptake ([4]; dbcAMP & compound versus dbcAMP alone (=1), 100 nM): 1.7
dibutyryl cAMP-evoked glucose uptake [4]: increase in dibutyryl cAMP-evoked glucose uptake
